From patent US9040717B2, “Pyrazole-amide compounds and pharmaceutical use thereof” (JAPAN TOBACCO INC., priority 2013, dated 2015)

How the values were obtained:
[1] = tested on: adipose tissue PDH activity; experiment: Ex vivo PDH activation assay, adipose tissue; format: in vivo, Sprague-Dawley rats; settings: non-fasting SD rats, vehicle 31 ± 10, mean ± S.D. (n = 3)
Description: (§1) The action of test compound on tissue PDH activity was evaluated. NADH production was detected via p-iodonitrotetrazolium violet (INT)-coupled system to measure PDH activity.
(§2) Normal male Sprague-Dawley rats were randomly allocated to the vehicle group and the test compound groups. The vehicle (0.5% aqueous methylcellulose solution, 5 mL/kg) or the test compound was orally administered to the rats. At 5 or 20 hr after administration, the rats were anesthetized with an intraperitoneal injection of sodium pentobarbital (60 mg/kg), and liver slices and epididymal adipose tissues were collected.
(§3) To the adipose tissues were rapidly added 3 volumes of an ice-cold homogenization buffer, and the mixtures were homogenized using a Polytron homogenizer. The homogenates were centrifuged at 600×g, 4° C. for 10 min to obtain the supernatant. The supernatants were centrifuged at 16,000×g, 4° C. for 10 min to collect the precipitates. The precipitates were washed by resuspension in the homogenization buffer (1 mL) and centrifuged in the same manner. The precipitates were frozen with liquid nitrogen and stored at −80° C. as the adipose tissue mitochondrial fraction.
(§4) The mitochondrial fractions were thawed and suspended with the sample buffer (0.25 mol/L sucrose, 20 mmol/L tris(hydroxymethyl)aminomethane hydrochloride (pH 7.5), 50 mmol/L potassium chloride, and 1 mL/L 4-(1,1,3,3-tetramethylbutyl)phenyl-polyethylene glycol (Triton X-100)). Active PDH activity (PDHa activity) and total PDH activity (PDHt activity) were measured to evaluate the PDH activity. For the measurement of the PDHt activity, equal amounts of the mitochondrial suspension and the activation buffer (0.25 mol/L sucrose, 20 mmol/L tris(hydroxymethyl)aminomethane hydrochloride (pH 7.5), 50 mmol/L potassium chloride, 1 mL/L Triton X-100, 4 mmol/L calcium chloride, 40 mmol/L magnesium chloride, 10 mmol/L sodium dichloroacetate) were mixed, and the mixtures were incubated at 37° C. for 10 min. Forty microliters of the mitochondrial suspensions diluted with a sample buffer were added to a 96-well microplate for activity measurement and blank measurement. Then 180 μL of the reaction mixture (0.056 mmol/L potassium phosphate buffer (pH 7.5), 5.6 mmol/L DL-carnitine, 2.8 mmol/L NAD, 0.22 mmol/L thiamin pyrophosphate, 0.11 mmol/L Coenzyme A, 1.1 mL/L Triton X-100, 1.1 mmol/L magnesium chloride, 1.1 g/L bovine serum albumin, 0.67 mmol/L INT, 7.2 μmol/L phenazine methosulfate, 28 mmol/L sodium oxamate) was added to each well, and then 20 μL of 50 mmol/L sodium pyruvate for activity measurement or water for blank measurement were added. The mixtures were incubated at room temperature under shading. The absorbances at 500-750 nm, which were attributable to reduction of INT, the final electron acceptor, were measured using a microplate reader over time and the changes in the absorbance were calculated. The PDH activity was calculated by subtraction of the change in absorbance of the blank well from that of the activity measurement well. The percentage of the PDHa activity to the PDHt activity was calculated and taken as an index of the PDH activation.

[2] = target: human PDHK2 (hPDHK2) (Homo sapiens (Human), UniProt Q15119); experiment: Inhibitory action of PDHK2 activity in vitro (residual PDH activity after kinase reaction); format: biochemical; settings: monohydrate
Description: (§5) The inhibitory action of PDHK activity was assessed indirectly by measuring the residual PDH activity after kinase reaction in the presence of a test compound.
In the case of human PDHK2 (hPDHK2, Genbank Accession No. BC040478.1), modified hPDHK2 cDNA wherein FLAG-Tag sequence was added to the N terminus of hPDHK2 cDNA clone (pReceiver-M01/PDK2-GeneCopoeia) was prepared by PCR and cloned into a vector (pET17b-Novagen). The recombinant construct was transformed into Escherichia coli (DH5α-TOYOBO). The recombinant clones were identified, and plasmid DNA was isolated and subjected to the DNA sequence analysis. One clone which had the expected nucleic acid sequence was selected for expression work.
For expression of hPDHK2 activity, Escherichia coli strain BL21(DE3) cells (Novagen) were transformed with the pET17b vector containing modified hPDHK2 cDNA. The Escherichia coli were grown to an optical density 0.6 ([…]) at 30° C. Protein expression was induced by the addition of 500 μmol/L isopropyl-β-thiogalactopyranoside. The Escherichia coli were cultured at 30° C. for 5 hr and harvested by centrifugation. Resuspension of the Escherichia coli paste was disrupted by a microfluidizer. FLAG-Tagged protein was purified using FLAG affinity gel. […]
0.05 U/mL PDH and 0.8 μg/mL hPDHK2 were mixed in a buffer (50 mmol/L 3-morpholinopropanesulfonic acid (pH 7.0), 20 mmol/L dipotassium hydrogen phosphate, 60 mmol/L potassium chloride, 2 mmol/L magnesium chloride, 0.4 mmol/L EDTA, and 0.2% Pluronic F-68, 2 mmol/L dithiothreitol), and the mixture was incubated at 4° C. overnight to obtain a PDH/hPDHK2 complex. […] The mixture was incubated at room temperature for 90 min, and the residual PDH activity was measured. The absorbance at 340 nm before and after PDH reaction was measured using a microplate reader to detect NADH produced by the PDH reaction. The hPDHK2 inhibition rate (%) of the test compound was calculated from the formula [{(PDH activity of test compound−PDH activity of control)/PDH activity of blank−PDH activity of control)}×100].

[3] = tested on: liver PDH activity; experiment: Ex vivo PDH activation assay, liver; format: in vivo, Sprague-Dawley rats; settings: non-fasting SD rats, vehicle 13 ± 3, mean ± S.D. (n = 3)
Description: as §1, §2
as §3, with “liver slices” for “adipose tissues”, “9” for “3”, “of” for “of an”, “buffer (0.25 mol/L sucrose, 5 mmol/L tris(hydroxymethyl)aminomethane hydrochloride (pH 7.5), 2 mmol/L EDTA),” for “buffer,”, “supernatants (1 mL)” for “supernatants”, “liver” for “adipose tissue”
as §4

[4] = target: human PDHK1 (hPDHK1) (Homo sapiens (Human), UniProt Q15118); experiment: Inhibitory action of PDHK1 activity in vitro (residual PDH activity after kinase reaction); format: biochemical
Description: as §5
The recombinant construct was transformed into Escherichia coli (DH5α-TOYOBO). The recombinant clones were identified, and plasmid DNA was isolated and subjected to the DNA sequence analysis. One clone which had the expected nucleic acid sequence was selected for expression work.
The Escherichia coli were grown to an optical density 0.6 ([…]) at 30° C. Protein expression was induced by the addition of 500 μmol/L isopropyl-β-thiogalactopyranoside. The Escherichia coli were cultured at 30° C. for 5 hr and harvested by centrifugation. Resuspension of the Escherichia coli paste was disrupted by a microfluidizer.
The eluted fractions containing FLAG-Tagged protein were pooled, dialyzed against 20 mmol/L HEPES-NaOH, 150 mmol/L sodium chloride, 0.5 mmol/L ethylenediamine tetraacetic acid (EDTA), 1% ethylene glycol, and 0.1% Pluronic F-68 (pH 8.0), and preserved at −80° C.
The mixture was incubated at room temperature for 90 min, and the residual PDH activity was measured.
The absorbance at 340 nm before and after PDH reaction was measured using a microplate reader to detect NADH produced by the PDH reaction.

[5] = Table 2, 5 hr after oral 3 mg/kg
[6] = Table 2, 20 hr after oral 3 mg/kg

Sequence of human PDHK1 (hPDHK1) (Q15118 29-436): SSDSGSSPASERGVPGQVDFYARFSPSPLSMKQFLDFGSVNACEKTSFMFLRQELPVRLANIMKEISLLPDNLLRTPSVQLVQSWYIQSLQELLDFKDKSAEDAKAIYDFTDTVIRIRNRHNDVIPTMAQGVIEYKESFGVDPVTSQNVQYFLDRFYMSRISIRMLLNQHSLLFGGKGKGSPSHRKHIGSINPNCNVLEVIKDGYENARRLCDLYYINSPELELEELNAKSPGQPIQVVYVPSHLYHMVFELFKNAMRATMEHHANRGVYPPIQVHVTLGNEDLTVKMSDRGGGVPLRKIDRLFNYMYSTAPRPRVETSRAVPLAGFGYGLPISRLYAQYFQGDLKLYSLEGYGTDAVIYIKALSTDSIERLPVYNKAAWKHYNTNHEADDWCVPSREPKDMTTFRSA

CC(C)(O)CCOc1cc(-c2cnn(C(C)(C)C(N)=O)c2)c2c(c1)[C@@](O)(C(F)(F)F)c1ccccc1-2 [Compound (2h), 2-{4-[(9R)-9-hydroxy-2-(3-hydroxy-3-methylbutyloxy)-9-(trifluoromethyl)-9H-fluoren-4-yl]-1H-pyrazol-1-yl}-2-methylpropanamide monohydrate]
PDHa activity (% of PDHt activity) [1, 5]: 59 ± 2 % of PDHt activity
PDHa activity (% of PDHt activity) [1, 6]: 44 ± 12 % of PDHt activity
IC50 [2]: 4.9 nM
PDHa activity (% of PDHt activity) [3, 5]: 59 ± 6 % of PDHt activity
PDHa activity (% of PDHt activity) [3, 6]: 31 ± 5 % of PDHt activity
IC50 [4]: 6.6 nM
